# Measured values reported in patent US20240316087A1, “Compositions And Methods For Inducing Apoptosis In Anaerobic Cells And Related Clinical Methods For Treating Cancer And Pathogenic Infections” (priority 2017, published 2024).
# Like-named read-outs stand apart in the source and are kept apart here.
# Tests used:
# NK cells = experiment: NK cell cancer-killing activity assay with immune cells from cancer patients; format: cell-based, human
# Description: Immune cells were obtained from blood samples of 73 cancer patients. The capability of these immune cells to kill tumor cells in vitro was determined using a conventional cellular NK activity assay (Neri et al, Clin. Diagn. Lab. Immunol. 2001 November; 8(6): 1131-1135).
# Control samples for these assays employed immune cells from patients diagnosed as having no detectable cancer. One exemplary test run (FIG. 4) compared nine patient samples side by side (samples 4 and 5 are controls, from patients with no cancer).
# Stage IV cancer = system: Stage IV cancer
# Description: A ten-year, multi-center cancer study was conducted wherein we recruited a total of 675 Stage IV cancer patients. These patients were treated and closely monitored through four participating medical and naturopathic clinics, with each clinic following standard therapeutic, monitoring and reporting protocols for each patient over a minimum study period of five years. The patients in these studies were all diagnosed by standard diagnostic methods (e.g., using tumor visualization, cytology, biopsy, blood assays for circulating tumor markers, etc.) at the start of the study as having Stage IV cancer, according to conventional diagnostic standards. Cancer types were grouped by primary cancer cytology/histochemistry, patient history and other standard criteria.
# Of the 675 enrolled patients, 128 patients entered the study with diagnosed Stage IV breast cancer, 91 with Stage IV colon/rectal cancer, 34 with Stage IV head/neck cancer, 86 with Stage IV lung cancer, 32 with Stage IV non-Hodgkin's lymphoma (NHL), 28 with Stage IV melanoma, 36 with Stage IV ovarian cancer, 37 with Stage IV pancreatic cancer, 76 with Stage IV prostate cancer, 18 with Stage IV renal cancer, 23 with Stage IV sarcoma, and 34 with Stage IV uterine cancer.
# Many of the enrolled subjects in this clinical study presented with Stage IV cancer that had persisted for many months, and in many cases years, following a prior Stage IV cancer diagnosis, and after having undergone one or more failed rounds of conventional oncotherapy (typically a combination of surgery, chemotherapy, radiation and/or hormonal therapy as indicated). These subjects are classified as “non-responsive” to conventional oncotherapy. A majority of the remaining study subjects enrolled in our study after an original Stage III or Stage IV cancer diagnosis, followed by conventional oncotherapy prior to the study, and presented at the time of study enrollment with disease progression to Stage IV cancer or with relapse of a prior, treated cancer. These subjects are classified as “treatment resistant” or “refractory” Stage IV cancer patients.
# All patients remained throughout the study period in contact with medical providers who maintained regular monitoring of the subject's disease condition (with regular exams, including blood work testing for cancer markers, cytology, CT scans, PET scans, biopsy where indicated, and other diagnostic monitoring). Many of the study patients, while classified as having “treatment-resistant” Stage IV disease, nonetheless continued with some form of conventional oncotherapy (e.g., low dose chemotherapy) as recommended by their oncologist. […] About half of these subjects received conventional dose chemotherapy at some point, while the remainder received “low dose chemotherapy” (e.g., using a 10-15% dosing of a standard chemotherapeutic drug such as a taxane). […] Additionally, patients with breast cancer, ovarian cancer, uterine cancer and prostate cancer remained on any oncologist-prescribed hormonal therapy.
# In certain cases, all 15 iv treatments were administered over a consecutive 15-day period, while in others the 15 iv treatments were scheduled over as much as a one-month period to accommodate patient scheduling factors.
# All subjects were regularly examined for diagnostic cancer indicators, assessed according to standard methods.
# [1] = system: proliferating cancer and non-cancer cells and viral-infected cells; experiment: Salicinium uptake into proliferating and viral-infected cells; format: cell-based
# [2] = Stage IV Non-Hodgins Lymphoma, number of patients out of 32 studied
# [3] = Stage IV breast cancer, number of patients out of 128 studied
# [4] = Stage IV colon/rectal cancer, number of patients out of 91 studied
# [5] = Stage IV head/neck cancer, number of patients out of 34 studied
# [6] = Stage IV lung cancer, number of patients out of 86 studied
# [7] = Stage IV melanoma, number of patients out of 29 studied
# [8] = Stage IV non-Hodgkin's lymphoma
# [9] = Stage IV ovarian cancer, number of patients out of 36 studied
# [10] = Stage IV pancreatic cancer, number of patients out of 37 studied
# [11] = Stage IV prostate cancer, number of patients out of 76 studied
# [12] = Stage IV renal cancer, number of patients out of 18 studied
# [13] = Stage IV sarcoma, number of patients out of 23 studied
# [14] = Stage IV uterine cancer, number of patients out of 34 studied
substance,measurement,setting,value
4-(beta-D-allopyranosyloxy)-benzaldehyde [Salicinium],average increase in NK cell cancer-killing activity compared to basal,"NK cells; cumulative samples (73 cancer patients), helicidum 0.5 mg/ml, 24 hours",2.6 times
same,increase in NK cell cancer-killing activity above basal activity,"NK cells; exemplary test run, FIG. 4, cancer patient samples, helicidum 0.5 mg/ml, 24 hours","from about 50% to 2- or 3-fold, up to about 4-fold or higher"
same,increase in NK cell activity in control samples,"NK cells; immune cells from patients with no detectable cancer, Salicinium present",little or no increase in NK cell activity
same,"therapeutic benefit (rates of stable disease, remission and survival) in smaller study groups","Stage IV cancer; 51 additional patients: ALL, AML, astrocytoma, bladder, CLL, esophageal, gall bladder, stomach, glioblastoma, Hodgkin's, liver, mesothelioma, myeloma, testicular, thyroid, five years",significant therapeutic benefits
same,"Complete Remission, patient status through end of five year study period",Stage IV cancer; [2],6
same,"Not Surviving, patient status through end of five year study period",Stage IV cancer; [2],15
same,"Partial Remission, patient status through end of five year study period",Stage IV cancer; [2],5
same,"Stable Disease, patient status through end of five year study period",Stage IV cancer; [2],6
same,five-year survival rate,Stage IV cancer; Stage IV breast cancer,69%
same,patients with stable disease or in partial remission at end of five-year study,Stage IV cancer; Stage IV breast cancer,53%
same,increase in five-year survival expectancy versus NIH median,"Stage IV cancer; Stage IV breast cancer, from 16% (NIH median) to 69%",greater than four-fold increase
same,"Complete Remission, patient status through end of five year study period",Stage IV cancer; [3],21
same,"Not Surviving, patient status through end of five year study period",Stage IV cancer; [3],39
same,"Partial Remission, patient status through end of five year study period",Stage IV cancer; [3],30
same,"Stable Disease, patient status through end of five year study period",Stage IV cancer; [3],38
same,patients in complete remission at end of five-year study,"Stage IV cancer; Stage IV breast cancer, of 128 enrolled",16%
same,patients in total remission,Stage IV cancer; Stage IV colon/rectal cancer,5%
same,patients surviving with stable disease or partial remission,Stage IV cancer; Stage IV colon/rectal cancer,56%
same,total five-year survival percentage,"Stage IV cancer; Stage IV colon/rectal cancer, 91 patients",61%
same,survival versus NIH median survival,"Stage IV cancer; Stage IV colon/rectal cancer, NIH median 8-15% (average 11.5%)",more than five-times greater
same,"Complete Remission, patient status through end of five year study period",Stage IV cancer; [4],5
same,"Not Surviving, patient status through end of five year study period",Stage IV cancer; [4],35
same,"Partial Remission, patient status through end of five year study period",Stage IV cancer; [4],15
same,"Stable Disease, patient status through end of five year study period",Stage IV cancer; [4],36
same,five-year survival,Stage IV cancer; Stage IV head/neck cancer,53%
same,subjects in complete remission,Stage IV cancer; Stage IV head/neck cancer,12%
same,subjects stable or in partial remission,Stage IV cancer; Stage IV head/neck cancer,41%
same,"Complete Remission, patient status through end of five year study period",Stage IV cancer; [5],4
same,"Not Surviving, patient status through end of five year study period",Stage IV cancer; [5],16
same,"Partial Remission, patient status through end of five year study period",Stage IV cancer; [5],0
same,"Stable Disease, patient status through end of five year study period",Stage IV cancer; [5],14
same,five-year survival,Stage IV cancer; Stage IV lung cancer,62%
same,patients stable or in partial remission,Stage IV cancer; Stage IV lung cancer,56%
same,total remission rate,Stage IV cancer; Stage IV lung cancer,6%
same,increase in survival expectancy compared to NIH published data,"Stage IV cancer; Stage IV lung cancer, NIH median survival 50%",> 10%
same,"Complete Remission, patient status through end of five year study period",Stage IV cancer; [6],5
same,"Not Surviving, patient status through end of five year study period",Stage IV cancer; [6],33
same,"Partial Remission, patient status through end of five year study period",Stage IV cancer; [6],10
same,"Stable Disease, patient status through end of five year study period",Stage IV cancer; [6],38
same,five-year survival,Stage IV cancer; Stage IV melanoma,52%
same,increase in patient survival over median survival,"Stage IV cancer; Stage IV melanoma, NIH 15-20%, average 17.5%",about a three-fold increase
same,"Complete Remission, patient status through end of five year study period",Stage IV cancer; [7],0
same,"Not Surviving, patient status through end of five year study period",Stage IV cancer; [7],14
same,"Partial Remission, patient status through end of five year study period",Stage IV cancer; [7],8
same,"Stable Disease, patient status through end of five year study period",Stage IV cancer; [7],7
same,five-year survival,Stage IV cancer; [8],53%
same,subjects in total remission,Stage IV cancer; [8],19%
same,subjects stable or in partial remission,Stage IV cancer; [8],34%
same,overall five-year survival rate,Stage IV cancer; Stage IV ovarian cancer,55%
same,subjects in complete remission at end of study,Stage IV cancer; Stage IV ovarian cancer,More than 10%
same,survival versus NIH median survival,"Stage IV cancer; Stage IV ovarian cancer, NIH median 17%",more than three times
same,"Complete Remission, patient status through end of five year study period",Stage IV cancer; [9],4
same,"Not Surviving, patient status through end of five year study period",Stage IV cancer; [9],16
same,"Partial Remission, patient status through end of five year study period",Stage IV cancer; [9],5
same,"Stable Disease, patient status through end of five year study period",Stage IV cancer; [9],11
same,five-year survival rate,Stage IV cancer; Stage IV pancreatic cancer,46%
same,survival versus median survival expectancy,"Stage IV cancer; Stage IV pancreatic cancer, NIH median 4%",more than 11 times
same,"Complete Remission, patient status through end of five year study period",Stage IV cancer; [10],0
same,"Not Surviving, patient status through end of five year study period",Stage IV cancer; [10],20
same,"Partial Remission, patient status through end of five year study period",Stage IV cancer; [10],0
same,"Stable Disease, patient status through end of five year study period",Stage IV cancer; [10],17
same,five-year survival,Stage IV cancer; Stage IV prostate cancer,78%
same,patients in total disease remission,Stage IV cancer; Stage IV prostate cancer,20%
same,patients surviving in stable or partial remission status,Stage IV cancer; Stage IV prostate cancer,58%
same,survival versus NIH published median survival,"Stage IV cancer; Stage IV prostate cancer, NIH median 33%",more than double
same,"Complete Remission, patient status through end of five year study period",Stage IV cancer; [11],15
same,"Not Surviving, patient status through end of five year study period",Stage IV cancer; [11],16
same,"Partial Remission, patient status through end of five year study period",Stage IV cancer; [11],23
same,"Stable Disease, patient status through end of five year study period",Stage IV cancer; [11],22
same,five-year survival,Stage IV cancer; Stage IV renal cancer,56%
same,subjects in total remission,Stage IV cancer; Stage IV renal cancer,17%
same,subjects stable or in partial remission,Stage IV cancer; Stage IV renal cancer,39%
same,"Complete Remission, patient status through end of five year study period",Stage IV cancer; [12],3
same,"Not Surviving, patient status through end of five year study period",Stage IV cancer; [12],8
same,"Partial Remission, patient status through end of five year study period",Stage IV cancer; [12],0
same,"Stable Disease, patient status through end of five year study period",Stage IV cancer; [12],7
same,five-year survival,Stage IV cancer; Stage IV sarcoma,48%
same,subjects in total remission,Stage IV cancer; Stage IV sarcoma,9%
same,subjects stable or in partial remission,Stage IV cancer; Stage IV sarcoma,39%
same,"Complete Remission, patient status through end of five year study period",Stage IV cancer; [13],2
same,"Not Surviving, patient status through end of five year study period",Stage IV cancer; [13],12
same,"Partial Remission, patient status through end of five year study period",Stage IV cancer; [13],2
same,"Stable Disease, patient status through end of five year study period",Stage IV cancer; [13],7
same,five-year survival,Stage IV cancer; Stage IV uterine cancer,47%
same,subjects in total remission,Stage IV cancer; Stage IV uterine cancer,5%
same,subjects stable or in partial remission,Stage IV cancer; Stage IV uterine cancer,41%
same,"Complete Remission, patient status through end of five year study period",Stage IV cancer; [14],2
same,"Not Surviving, patient status through end of five year study period",Stage IV cancer; [14],18
same,"Partial Remission, patient status through end of five year study period",Stage IV cancer; [14],4
same,"Stable Disease, patient status through end of five year study period",Stage IV cancer; [14],10
same,increase of Salicinium uptake compared to healthy cells,[1]; often,2-5 times
same,increase of Salicinium uptake compared to healthy cells,"[1]; routinely, GLUT-mediated and other glycome transport",50-100%
same,increase of Salicinium uptake compared to healthy cells,[1]; up to,10-15 times
